Values quoted from earlier work in PMC6572293, “Antihypertensive Effects of Corn Silk Extract and Its Novel Bioactive Constituent in Spontaneously Hypertensive Rats: The Involvement of Angiotensin-Converting Enzyme Inhibition” (Molecules, 2019).

Conditions: from Coix glutelin; cited from earlier work
Description: Food peptides with anti-ACE activities have been identified from plants and animals. For example, oligopeptides FDGIP and AIDPVRA are ACE inhibitor derived from Caulerpa lentillifera. […] Peptides from auto-digested reishi (Ganoderma lingzhi) extract show potent inhibition against ACE and hypotensive activities in SHRs. Lacto-tr ...

GAAGGAF
Antihypertensive effect (in words): significant antihypertensive effect
